Assay results reported in patent publication US10054581B1, “Inhibitors of notch signaling pathway and use thereof in treatment of cancers” (Ecole Polytechnique Federale de Lausanne (EPFL), priority 2011, dated 2018).
“Also recorded” adds a separate entry of the source.

What was measured:
[1] = system: Notch signalling via DL4:N1 ligand-receptor pair (Notch1); assay: DL4:N1 coculture assay, Notch driven luciferase reporter; type: cell-based, mouse; details: for DL4:N1 (Notch1) driven pathway activation: 10 μM, 24 hours
Excerpt: Mouse DL4-IRES dsRED cDNA was cloned into a pENTR1 vector (Invitrogen®) and finally shuttled into a destination lentivirus vector using Gateway cloning strategy (Invitrogen). A Phosphoglycerate kinase (PGK) promoter drove the expression of DL4 protein. DL4-lentiviral particles were produced in 293T cells by cotransfection of DL4-lentivirus vector, Gag/pol expression plasmid and plasmid encoding for viral envelope proteins. To overexpress Notch1 protein, mouse full length Notch1 cDNA was a cloned in a pCDNA3.1-IRES-puromycin vector. Notch1 cDNA was cloned upstream of IRES-puromycin between HindIII and XbaI restriction sites. A CMV promoter controlled the expression of Notch1 protein.
To measure the Notch signalling activation, CSL/RBP-jk consensus DNA binding sequences were cloned in a head to tail conformation in the pGL4 luciferase vector (Promega), thus named 12×CSL/RBP-jjk luciferase vector. In order to determine the Notch pathway activation in chemical compound screening assay, 12×CSL/RBP-jk consensus DNA binding sequences were cloned into pGL4.26.luciferase vector (Promega). As an internal control for transfection efficiency, SV40 Renilla vector was used (Promega).
In order to generate DL4 and N1 stable cell lines, HeLa cell were bought from ATCC (catalog # CCL-2). To generate DL4 stable lines, cells were transduced with DL4-lentiviral particles. DL4 stable clones were selected using puromycin. High DL4 expressing clones were sorted using antibodies against DL4 with Fluorescence activated cell sorting (FACS). To generate N1 stable line, cell were transfected with a pCDNA3.1+(Invitrogen) plasmid containing mouse full length Notch1 under the control of CMV promoter. To select for Notch1 expressing clones, an IRES puromycin cassette was cloned downstream of Notch1 cDNA. HeLa cells expressing high levels of Notch1 were enriched by FACS using anti-Notch1 antibodies. DL4- and N1-HeLa cells were cultured in DMEM (GIBCO, Invitrogen), 10% FCS and 10 ug/ml of puromycin (Sigma).
For chemical library screen, the coculture assay was performed as follows. N1-HeLa cells were cotransfected in 10 cm tissue culture dishes with 16 μg of pGL4.26. 12×CSL.luciferase vector/plate, 4 μg of Notch1 expression plasmid/plate, and 200 ng of SV40 Renilla vector/plate. DL4- and N1-HeLa cells were detached from the plate by using 0.5 mM EDTA (1×PBS). The both cell populations were counted and mixed in 1:1 ratio (5,000:5,000 cells/well in a 384 well plate) and dispensed into 384 well plates (white, clear bottom, Corning) using multidrop Combi plate dispenser. The assay plates were pre-dispensed (using automated Biomek 3000 liquid handler) with chemical compound libraries (Microsource NIMDS, Maybridge Hitfinder and Prestwick) to give a final concentration of 10 μM. The final assay volume was 22 μls. Twenty-four hours later, growth media was aspirated and cells were lysed with 1× Passive lysis buffer for 10 minutes at room temperature. Luciferase activity was measured using Luciferase Assay Reagent II and Renilla values were determined by using Stop and Glow reagent (Dual luciferase assay system, Cat #E1980, Promega). Luciferase and renilla readouts were taken using Tecan® F500 (Tecan) multiplate reader. All the liquid handling steps (aspiration of the medium, dispensing of Passive lysis buffer, Luciferase Assay Reagent II and Stop and Glow reagents) were performed using ELF406 liquid handler.
In order to identify novel modulators of the Notch pathway, Applicants have established a coculture assay in which DL4 ligand expressing HeLa cells were cultured with N1 HeLa cells, thereby activating the Notch pathway. The use of a DL4 and N1 HeLa cell coculture system mimics physiological conditions of cell-cell communication between ligand and receptor expressing cells. The in vitro generation of a controlled receptor-ligand assay system allowed Applicants to modify and monitor the Notch signal intensity by γ-secretase inhibitors. […]

[2] = system: HCC1187 human breast cancer cell line; assay: Alamar blue proliferation assay, HCC1187; type: cell-based; details: 6 days
Experimental: FIGS. 5A-5E show 6-(4-Tert-Butylphenoxy)Pyridin-3-Amine (I3) blocks NICD dependent growth of human cancer cells. […] Western blot analyses were carried out for Hes1 protein using Hes1 specific antibodies. […] Growth kinetics of the parental cell line was followed over 5 days using Alamar blue readout. […] This mutation renders this cell line insensitive to γ-secretase inhibitor treatment. […] The cells were treated with DMSO, γ-secretase inhibitor DAPT and I3 for 6 days. Alamar blue readout was taken at day 0, day 2, day 4 and day 6. Eight replicates were used for each treatment and time point. […] P values were calculated using Student's t.test. *=p value<0.05. ns=not significant.
(§1) Alamarblue® proliferation assays were performed to determine the growth kinetics of Notch inhibitor treated cells. Alamar Blue® consists of a cell permeable substrate resazurin. In metabolically active and proliferating cells, resazurin is converted to resorufin due to an intrinsic reducing power of live cells and produces a red fluorescence. Therefore production of resorufin serves as an indicator of the viability of the cell population.
(§2) Proliferation assays were performed by seeding 5000 cells/well in a 96 well plate. Cells were treated with DMSO or Notch inhibitors for different time intervals. […] Alamarblue readout was taken using Tecan F500 (Tecan) multiplate reader. […]

[3] = system: Notch signalling via DL4:N1 ligand-receptor pair (Notch1); assay: DL4:N1 coculture assay, Notch driven luciferase reporter; type: cell-based, mouse; details: 24 hours; for Notch signalling activation (Notch driven luciferase), concentration dependence: 2, 5 and 10 μM
[4] = system: KOPTK1; assay: Alamar blue proliferation assay, KOPTK1; type: cell-based, human; details: 10 μM, up to 6 days
Experimental: Human T-ALL cell lines RPMI 8402 and KOPTK1, and pancreatic cancer cell line PANC1 as well as nRas driven melanoma cells were seeded in a 96 well plate and treated with 10 μM concentration of 6-(4-Tert-Butylphenoxy)Pyridin-3-Amine (I3) and DAPT for several days. Their growth inhibitory effects were compared with cells treated with equal amount of DMSO. Using Alamar blue assay, the growth kinetics of RPMI 8402 and KOPTK1 were followed for upto 6 days, while PANC1 and nRas melanoma cells were monitored for 4 days. 6-(4-Tert-Butylphenoxy)Pyridin-3-Amine (I3) treatment of RPMI 8402, KOPTK1. […] Statistical analyses were done using student's t.test. *=p value<0.05. ns=not significant.
as §1, §2

| SMILES | downregulation of Notch signalling activation ([1]; 10 μM DAPT vs DMSO, 384 well plate) | DL4:N1 (Notch1) driven pathway activation [1] | proliferation (Alamar blue) [2] | Notch signalling activation (Notch driven luciferase), concentration dependence [3] | proliferation (Alamar blue) [4] | IC50 value, Notch signalling in DL4:N1 coculture assay ([3]; increasing concentration 2-10 μM) |
| --- | --- | --- | --- | --- | --- | --- |
| C[C@H](NC(=O)Cc1cc(F)cc(F)c1)C(=O)N[C@H](C(=O)OC(C)(C)C)c1ccccc1 [DAPT, N—[N-(3,5-difluorophenacetyl-Lalanyl)]-(S)-phenylglycine t-butyl ester, reference compound] | 10 fold | block Notch1 and Notch2 induced pathway activation | did not inhibit proliferation; also recorded: did not alter the growth kinetics | causes a concentration dependent decrease in Notch signalling activation | induced a significant proliferation block | – |
| CC(C)(C)c1ccc(Oc2ccc(N)cn2)cc1 [I3, 6-(4-Tert-Butylphenoxy)Pyridin-3-Amine] | – | caused an inhibition of Notch signalling via both DL4:N1 and DL4:N2 ligand-receptor pairs; also recorded: block Notch1 and Notch2 induced pathway activation | significantly induced a proliferation block; also recorded: caused statistically significant inhibition of cell proliferation | blocks Notch signalling in a concentration dependent manner; also recorded: causes a concentration dependent decrease in Notch signalling activation | induced a significant proliferation block; also recorded: caused a significant reduction in their growth potential | in the lower μM range |
